Consider twelve molecules from ChEMBL document CHEMBL5365423, “6-Azaspiro[2.5]octanes as small molecule agonists of the human glucagon-like peptide-1 receptor” (Bioorg Med Chem Lett, 2023).

As usually defined, the EC50 is the concentration needed to bring the measured effect to its halfway point. As usually defined, the Papp is the rate of passage across a membrane or cell layer, normalised by area and donor concentration. The term Ki denotes a dissociation constant, usually derived from enzyme kinetics or from competition with a known ligand. Lower therefore signals higher affinity. In general, inhibition refers to how much of the control response was suppressed. As a reminder, the IC50 is the concentration needed to halve the response being measured. A high value points to a need for much substance. As usually defined, the logD is the decadic logarithm of the distribution of all forms, ionised or not, between an organic phase and buffer at a given pH. A high value points to higher lipophilicity.

A value given as a limit tells only on which side of the number the result lay.

In data set [1] the target is T1, Glucagon-like peptide 1 receptor (Homo sapiens, UniProt P43220). Nature of the data set: Displacement of [125I]-GLP1 from GLP-1 receptor (unknown origin) expressed in CHO cells membrane pre-incubated for 10 mins followed by [125I]-GLP1 addition and measured after 180 mins by microbeta scintillation counting method. It is filed as cell membranes. (In general: Displacement assays read how much labelled ligand stays bound in the presence of the test substance.)

Data set [2] in a line: Intrinsic clearance in human hepatocytes measured per million cells. The following applies: read-out: CLH. The format is ADME, cell-based, Hepatocyte.
Data set [3] in a line: Apparent permeability in MDCK cells by LC-MS/MS analysis. The format is ADME, cell-based, Canis lupus familiaris. The note with it: dog.
Data set [4] deals with T1, Glucagon-like peptide 1 receptor. Nature of the data set: Agonist activity at GLP-1 receptor (unknown origin) expressed in CHO cells at 20 uM in presence of BETP by cAMP assay relative to control. The format is functional, cell-based. The note with it: filed as agonist. In general terms: Changes in cAMP serve as a functional read-out for many G protein-coupled receptors.

Data set [5] is described as follows: Drug metabolism in human hepatocytes assessed as oxidation by LC/MS/MS analysis. The format is ADME, cell-based, Hepatocyte.
Data set [6] has as its target Voltage-gated inwardly rectifying potassium channel KCNH2 (Homo sapiens, UniProt Q12809). As to the kind of experiment: Inhibition of human ERG dofetilide binding assay. The format is toxicity.
In a further data set the target is T2, CYP2C8 (Homo sapiens, UniProt P10632).
T2 sequence (P10632 whole entry): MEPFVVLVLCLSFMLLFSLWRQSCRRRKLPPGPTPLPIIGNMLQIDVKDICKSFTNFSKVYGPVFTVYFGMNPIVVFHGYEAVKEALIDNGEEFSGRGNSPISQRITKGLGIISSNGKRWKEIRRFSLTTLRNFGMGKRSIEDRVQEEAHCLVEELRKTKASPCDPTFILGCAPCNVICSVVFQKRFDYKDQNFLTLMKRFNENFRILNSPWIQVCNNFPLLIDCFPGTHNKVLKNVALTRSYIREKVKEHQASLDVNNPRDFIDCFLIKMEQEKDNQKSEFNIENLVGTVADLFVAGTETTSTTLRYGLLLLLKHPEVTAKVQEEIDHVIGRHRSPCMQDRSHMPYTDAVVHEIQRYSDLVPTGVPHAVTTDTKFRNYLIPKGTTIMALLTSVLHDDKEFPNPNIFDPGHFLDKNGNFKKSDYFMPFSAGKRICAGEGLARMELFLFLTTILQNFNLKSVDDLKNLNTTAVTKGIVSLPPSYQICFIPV
Nature of the data set: Inhibition of CYP2C8 (unknown origin) at 3 uM relative to control. The format is ADME.

The next data set has as its target CYP3A4 (Homo sapiens, UniProt P08684). As to the kind of experiment: Inhibition of CYP3A4 (unknown origin) at 3 uM relative to control. It is filed as ADME.
The subject of another data set is PDE3A1. Nature of the data set: Inhibition of PDE3A1 (unknown origin). The format is toxicity, Homo sapiens.
Another data set has as its target T3, CYP1A2 (Homo sapiens, UniProt P05177).
T3 sequence (P05177 whole entry): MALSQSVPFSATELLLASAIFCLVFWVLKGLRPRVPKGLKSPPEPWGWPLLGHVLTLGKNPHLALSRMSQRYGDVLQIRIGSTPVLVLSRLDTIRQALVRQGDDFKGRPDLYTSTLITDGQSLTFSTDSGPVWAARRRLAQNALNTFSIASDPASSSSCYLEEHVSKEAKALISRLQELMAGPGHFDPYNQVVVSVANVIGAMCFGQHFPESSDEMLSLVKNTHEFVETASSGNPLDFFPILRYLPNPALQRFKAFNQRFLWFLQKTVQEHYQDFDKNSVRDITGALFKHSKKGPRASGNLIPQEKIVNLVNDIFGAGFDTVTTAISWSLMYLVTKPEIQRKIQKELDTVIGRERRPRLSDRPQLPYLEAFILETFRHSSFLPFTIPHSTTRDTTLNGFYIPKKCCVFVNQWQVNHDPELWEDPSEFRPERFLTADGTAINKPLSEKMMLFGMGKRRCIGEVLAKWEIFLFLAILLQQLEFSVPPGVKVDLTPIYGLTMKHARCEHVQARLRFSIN
As to the kind of experiment: Inhibition of CYP1A2 (unknown origin) at 3 uM relative to control. The format is ADME.

The target of the next data set is CYP2D6 (Homo sapiens, UniProt P10635). Nature of the data set: Inhibition of CYP2D6 (unknown origin) at 3 uM relative to control. It is filed as ADME.
Data set [7] in a line: Lipophilicity, logD of compound. The format is physicochemical. The note with it: octanol/water.
A short description of data set [8]: Drug metabolism in human hepatocytes assessed as glucuronidation by LC/MS/MS analysis. It is filed as ADME, cell-based, Hepatocyte.
The target of another data set is CYP2C9 (Homo sapiens, UniProt P11712). As to the kind of experiment: Inhibition of CYP2C9 (unknown origin) at 3 uM relative to control. The format is ADME.
Sequence of CYP2C9 (P11712 whole entry): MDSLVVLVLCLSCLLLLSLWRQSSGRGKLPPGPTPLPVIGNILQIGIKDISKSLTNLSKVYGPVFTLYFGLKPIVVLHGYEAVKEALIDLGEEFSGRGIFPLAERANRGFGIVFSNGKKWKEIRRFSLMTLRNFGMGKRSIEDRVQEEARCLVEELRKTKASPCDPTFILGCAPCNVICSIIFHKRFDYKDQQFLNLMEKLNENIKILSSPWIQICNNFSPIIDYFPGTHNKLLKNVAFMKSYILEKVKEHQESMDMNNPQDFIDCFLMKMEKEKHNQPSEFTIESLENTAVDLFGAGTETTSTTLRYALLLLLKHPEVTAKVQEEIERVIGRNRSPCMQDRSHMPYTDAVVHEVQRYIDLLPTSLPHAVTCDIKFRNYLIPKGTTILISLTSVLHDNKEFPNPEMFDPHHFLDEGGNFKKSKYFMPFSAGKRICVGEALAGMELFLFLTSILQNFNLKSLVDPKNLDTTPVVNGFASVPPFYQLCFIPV

T1 sequence (P43220 whole entry): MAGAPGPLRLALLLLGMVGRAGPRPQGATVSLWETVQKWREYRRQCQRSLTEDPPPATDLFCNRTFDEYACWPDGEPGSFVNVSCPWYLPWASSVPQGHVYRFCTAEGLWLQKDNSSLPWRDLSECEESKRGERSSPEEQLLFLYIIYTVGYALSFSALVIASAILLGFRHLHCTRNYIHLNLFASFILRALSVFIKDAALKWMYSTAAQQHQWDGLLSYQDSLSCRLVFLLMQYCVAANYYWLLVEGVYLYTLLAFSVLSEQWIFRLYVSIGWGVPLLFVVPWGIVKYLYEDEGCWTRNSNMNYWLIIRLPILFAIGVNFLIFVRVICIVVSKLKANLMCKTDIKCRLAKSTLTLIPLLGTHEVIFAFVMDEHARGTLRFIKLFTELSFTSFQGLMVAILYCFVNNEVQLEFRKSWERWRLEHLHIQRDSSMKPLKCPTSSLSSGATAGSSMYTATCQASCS
Sequence of CYP3A4 (P08684 whole entry): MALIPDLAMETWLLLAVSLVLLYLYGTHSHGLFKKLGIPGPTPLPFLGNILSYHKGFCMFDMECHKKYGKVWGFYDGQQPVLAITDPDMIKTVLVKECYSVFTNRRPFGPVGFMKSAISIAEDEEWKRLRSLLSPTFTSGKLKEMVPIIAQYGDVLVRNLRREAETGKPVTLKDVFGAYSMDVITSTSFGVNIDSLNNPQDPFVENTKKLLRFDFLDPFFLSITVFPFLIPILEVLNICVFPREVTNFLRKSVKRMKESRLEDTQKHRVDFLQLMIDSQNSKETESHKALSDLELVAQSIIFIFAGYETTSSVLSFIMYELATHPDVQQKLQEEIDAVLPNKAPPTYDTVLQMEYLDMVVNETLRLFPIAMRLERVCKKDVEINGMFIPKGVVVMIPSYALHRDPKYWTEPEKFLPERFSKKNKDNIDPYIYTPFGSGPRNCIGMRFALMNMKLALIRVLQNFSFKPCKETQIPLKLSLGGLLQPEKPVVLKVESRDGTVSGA
Sequence of CYP2D6 (P10635 whole entry): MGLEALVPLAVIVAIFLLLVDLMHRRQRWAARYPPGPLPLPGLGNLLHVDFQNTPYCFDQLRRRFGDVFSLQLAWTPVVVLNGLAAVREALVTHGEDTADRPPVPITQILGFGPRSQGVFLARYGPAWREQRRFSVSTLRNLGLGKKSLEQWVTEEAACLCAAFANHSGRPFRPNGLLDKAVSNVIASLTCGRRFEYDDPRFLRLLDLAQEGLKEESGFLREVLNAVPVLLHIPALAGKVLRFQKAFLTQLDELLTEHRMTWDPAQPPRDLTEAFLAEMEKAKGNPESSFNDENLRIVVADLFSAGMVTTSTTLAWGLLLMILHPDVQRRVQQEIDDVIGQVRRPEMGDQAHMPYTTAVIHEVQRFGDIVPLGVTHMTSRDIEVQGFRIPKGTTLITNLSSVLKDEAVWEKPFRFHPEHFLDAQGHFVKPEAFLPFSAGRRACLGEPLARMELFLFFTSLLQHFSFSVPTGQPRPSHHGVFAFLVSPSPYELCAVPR
Sequence of Voltage-gated inwardly rectifying potassium channel KCNH2 (Q12809 whole entry): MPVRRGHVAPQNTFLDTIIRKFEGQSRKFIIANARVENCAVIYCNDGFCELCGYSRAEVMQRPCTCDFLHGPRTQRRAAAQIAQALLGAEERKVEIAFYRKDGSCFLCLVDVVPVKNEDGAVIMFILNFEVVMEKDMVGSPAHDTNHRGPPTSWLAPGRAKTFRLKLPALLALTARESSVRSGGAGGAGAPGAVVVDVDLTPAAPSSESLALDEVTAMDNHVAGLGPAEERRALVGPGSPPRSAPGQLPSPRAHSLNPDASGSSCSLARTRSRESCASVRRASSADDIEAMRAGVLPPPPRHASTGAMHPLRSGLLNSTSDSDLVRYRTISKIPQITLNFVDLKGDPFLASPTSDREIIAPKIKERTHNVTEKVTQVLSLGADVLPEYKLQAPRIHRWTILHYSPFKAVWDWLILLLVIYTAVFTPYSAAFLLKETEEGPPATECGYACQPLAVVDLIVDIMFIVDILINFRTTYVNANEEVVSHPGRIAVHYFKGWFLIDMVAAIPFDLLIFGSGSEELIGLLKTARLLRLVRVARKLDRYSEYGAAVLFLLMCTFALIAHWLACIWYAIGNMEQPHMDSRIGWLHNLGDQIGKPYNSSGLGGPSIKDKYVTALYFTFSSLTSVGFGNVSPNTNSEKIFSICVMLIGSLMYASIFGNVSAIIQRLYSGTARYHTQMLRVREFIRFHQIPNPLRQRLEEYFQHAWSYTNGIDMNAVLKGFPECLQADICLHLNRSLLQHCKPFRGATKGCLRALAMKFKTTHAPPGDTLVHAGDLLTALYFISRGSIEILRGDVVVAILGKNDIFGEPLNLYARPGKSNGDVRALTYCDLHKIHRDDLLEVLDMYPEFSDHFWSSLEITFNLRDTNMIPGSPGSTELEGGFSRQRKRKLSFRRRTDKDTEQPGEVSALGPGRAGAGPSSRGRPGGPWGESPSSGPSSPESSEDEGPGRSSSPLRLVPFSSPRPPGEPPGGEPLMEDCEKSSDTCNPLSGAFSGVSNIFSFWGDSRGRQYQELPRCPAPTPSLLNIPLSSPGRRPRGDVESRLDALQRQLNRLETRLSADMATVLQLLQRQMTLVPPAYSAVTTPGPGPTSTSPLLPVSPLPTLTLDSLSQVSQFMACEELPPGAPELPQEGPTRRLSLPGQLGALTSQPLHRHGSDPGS

Molecule `N#Cc1ccc(COc2nc(N3CCC4(CC3)C[C@@H]4c3nc4ccc(C(=O)O)cc4n3C[C@@H]3CCO3)ccc2F)c(F)c1` gave a half-maximal effective concentration (EC50) in [1] of 14 nM. Besides, the hepatocyte CLint in data set [2] came to 20 µL/min/1e6 cells. In data set [3], the Papp stood at 5 ×10⁻⁶ cm/s.

As to `Cn1c(CC2CCN(c3nc(OCc4ccc(Cl)cc4F)ncc3F)CC2)nc2ncccc21`, in data set [4], the Activity turned out to be 75%.

`O=C(O)c1ccc2nc([C@H]3CC34CCN(c3ncc(F)c(OCc5ccc(Cl)cc5F)n3)CC4)n(C[C@@H]3CCO3)c2c1`: the midpoint of the response in [1], the EC50, lay at 19 nM. In addition, the hepatocyte CLint in data set [2] turned out to be 27 µL/min/1e6 cells. For the same molecule, the Papp in data set [3] came to 3 ×10⁻⁶ cm/s.

For the molecule `N#Cc1ccc(COc2ccc(F)c(N3CCC4(CC3)C[C@@H]4c3nc4ccc(C(=O)O)cc4n3C[C@@H]3CCO3)n2)c(F)c1`, the Drug metabolism result in [5] and in data set [8] was “Metabolite_Detected” each time. The molecule also showed a Ki in data set [6] greater than 40000 nM. Besides, in data set [1], the 50% effective concentration (EC50) was 5.8 nM. The inhibition at 3 µM on CYP2C8 is 60%; on CYP3A4 it was less than 20%; against CYP1A2, less than 20%; on CYP2D6, less than 20%; against CYP2C9 it was less than 20%. Also, the half-maximal inhibitory concentration (IC50) in the data set on PDE3A1 worked out at 409 nM. The hepatocyte CLint in [2] was 32 µL/min/1e6 cells. This molecule had a logD in data set [7] of 2.3. Besides, the apparent permeability coefficient (Papp) in data set [3] came to 6 ×10⁻⁶ cm/s.

On to `O=C(O)c1ccc2nc([C@H]3CC34CCN(c3nc(OCc5ccc(Cl)cc5F)ncc3F)CC4)n(C[C@H]3CCO3)c2c1`, for which, in data set [2], the hepatocyte CLint is 21 µL/min/1e6 cells. Moreover, the Papp in data set [3] is 5 ×10⁻⁶ cm/s.

In the case of `N#Cc1ccc(COc2nc(N3CCC4(CC3)C[C@@H]4c3nc4ccc(C(=O)O)cc4n3C[C@@H]3CCO3)c(F)cc2F)c(F)c1`, in data set [1], the EC50 amounted to 4.1 nM. The hepatocyte CLint in [2] was determined as 37 µL/min/1e6 cells. Moreover, the Papp in data set [3] came to 5 ×10⁻⁶ cm/s.

Take `O=C(O)c1ccc2nc([C@H]3CC34CCN(c3nccc(OCc5ccc(Cl)cc5F)n3)CC4)n(C[C@@H]3CCO3)c2c1`: the EC50 in data set [1] was 32 nM. Also, in data set [2], the hepatocyte CLint worked out at 30 µL/min/1e6 cells. Besides, the Papp in data set [3] was 2 ×10⁻⁶ cm/s.

In [1], `O=C(O)c1ccc2nc([C@H]3CC34CCN(c3nc(OCc5ccc(Cl)cc5F)ncc3F)CC4)n(C[C@@H]3CCO3)c2n1` registered an EC50 of 15 nM. The hepatocyte CLint in data set [2] was determined as 14 µL/min/1e6 cells. In [3], the Papp was found to be 7 ×10⁻⁶ cm/s.

In the case of `N#Cc1ccc(COc2cccc(C3CCN(Cc4nc5ccc(C(=O)O)cc5n4C[C@@H]4CCO4)CC3)n2)c(F)c1` [DANUGLIPRON], in [2], the hepatocyte CLint came out at 7 µL/min/1e6 cells. Moreover, the Papp in data set [3] was found to be 10 ×10⁻⁶ cm/s.

For `Cn1c(CC2CCN(c3nc(OCc4ccc(Cl)cc4F)ncc3F)CC2)nc2ccccc21`, in data set [4], the Activity came to 40%.

For `Cn1c(CN2CCC(c3nc(OCc4ccc(Cl)cc4F)ncc3F)CC2)nc2ccccc21`, the Activity in [4] was found to be 70%.

For the molecule `N#Cc1ccc(COc2cccc(N3CCC4(CC3)C[C@@H]4c3nc4ccc(C(=O)O)cc4n3C[C@@H]3CCO3)n2)c(F)c1`, in [1], the EC50 was found to be 15 nM. Moreover, the hepatocyte CLint in data set [2] amounted to 23 µL/min/1e6 cells. For the same molecule, the apparent permeability coefficient (Papp) in [3] came out at 7 ×10⁻⁶ cm/s.
